Measurements as given in paper PMC11310081, “Deep-learning-enabled antibiotic discovery through molecular de-extinction” (Nature Biomedical Engineering, 2024).
Read-outs that look alike come from different tables or passages of the source. Peptide text beside a SMILES is read from it.

Tests used:
A. baumannii ATCC 19606 [1] = assay: Skin abscess infection mouse model; type: in vivo, CD-1 mice; conditions: CD-1 mice
Experimental: A. baumannii ATCC 19606 cells were grown in LB medium to an OD600 = 0.5. Cells were washed twice with sterile phosphate-buffered saline (PBS) (pH 7.4, 13,000 r.p.m. for 2 min) and resuspended to a final concentration of 10^6 (A. baumannii cells) colony-forming units per millilitre (c.f.u. ml^−1). Six-week-old female CD-1 mice from Charles River (stock number 18679700-022) were anaesthetized with isoflurane, and their backs were sterilized and shaved. A superficial linear skin abrasion was made with a needle to damage the stratum corneum and upper layer of the epidermis. An aliquot of 20 μl containing the bacterial load resuspended in PBS was inoculated over the scratched area. Two hours after the infection, peptides diluted in water at their MIC value were administered to the infected area, and the untreated mice were inoculated with the same volume of deionized water. Mice were euthanized, and the area of scarified skin was excised 2 days and 4 days post infection, homogenized using a bead beater for 20 min (25 Hz) and then serially diluted tenfold for quantification of colony-forming units. This quantitative method was used as it has been established to accurately reflect the number of bacteria present in a given infected area. MacConkey agar plates were used as A. baumannii colonies appear purple in this medium and can easily be distinguished from other strains. The experiments were performed with six mice per group. All experiments were performed blindly, and no animal subjects were excluded from the analysis. The skin abscess infection mouse model was approved by the University Laboratory Animal Resources from the University of Pennsylvania (protocol 806763). Statistical significance was determined using one-way analysis of variance (ANOVA) followed by Dunnett’s test in log10-transformed data to mitigate the effect of outliers; P values are presented for each group, with all groups being compared to the untreated control group.

A. baumannii ATCC 19606 [2] = assay: Neutropenic thigh infection mouse model; type: in vivo, CD-1 mice; conditions: neutropenic CD-1 mice
Experimental: Six-week-old female CD-1 mice from Charles River (stock number 18679700-022) were rendered neutropenic by two doses of cyclophosphamide (150 mg kg^−1) applied intraperitoneally with an interval of 72 h. One day after the last dose of cyclophosphamide, the mice were injected intramuscularly in their right thigh with a bacterial load of 10^6 c.f.u. ml^−1 of A. baumannii ATCC 19606 cells. The bacteria had been grown in LB broth, washed twice with PBS (pH 7.4), and resuspended to the desired concentration. Two hours after bacterial injection, peptides resuspended in water were administered intraperitoneally, and the untreated mice were inoculated with the same volume of deionized water. Before each injection, mice were anaesthetized with isoflurane and monitored for respiratory rate and pedal reflexes. Next, we monitored the establishment of the infection and euthanized the mice. The infected area was excised 2 days and 4 days post infection, homogenized using a bead beater for 20 min (25 Hz), and then serially diluted tenfold for quantification of colony-forming units in MacConkey agar plates. The experiments were performed with six mice per group. All experiments were performed blindly, and no animal subjects were excluded from the analysis. The thigh infection mouse model was approved by the University Laboratory Animal Resources from the University of Pennsylvania (protocol 807055). Statistical significance was determined using one-way ANOVA followed by Dunnett’s test in log10-transformed data to mitigate the effect of outliers; P values are presented for each group, with all groups being compared to the untreated control group.

HEK293T cells = system: HEK293T cells
Experimental: HEK293T cells were obtained from the American Type Culture Collection (CRL-3216). The cells were cultured in high-glucose Dulbecco’s modified Eagle’s medium supplemented with 1% penicillin and streptomycin (antibiotics) and 10% fetal bovine serum and grown at 37 °C in a humidified atmosphere containing 5% CO2.
One day before the experiment, an aliquot of 100 μl of the cells at 50,000 cells per ml was seeded into each well of the cell-treated 96-well plates used in the experiment (that is, 5,000 cells per well). […] After the incubation period, we performed the 3-(4,5-dimethylthiazol-2-yl)-2,5-diphenyltetrazolium bromide tetrazolium reduction assay (MTT assay)[53]. The MTT reagent was dissolved at 0.5 mg ml^−1 in medium without phenol red and was used to replace cell culture supernatants containing the peptides (100 μl per well), and the samples were incubated for 4 h at 37 °C in a humidified atmosphere containing 5% CO2 yielding the insoluble formazan salt. The resulting salts were then resuspended in hydrochloric acid (0.04 mol l^−1) in anhydrous isopropanol and quantified by spectrophotometric measurements of absorbance at 570 nm. All assays were done as three biological replicates.
Unless otherwise stated, all assays were performed in three independent biological replicates as indicated in each figure legend and Methods sections. The cytotoxic activities values were estimated using non-linear regression based on the range of concentrations screened and were shown as the values that cause lysis of 50% of the cells in the experiment. Two technical replicates were performed in the cytotoxicity assays within each of the three biological replicates.

[3] = system: 11 clinically relevant bacterial pathogens; type: cell-based; conditions: Supplementary Dataset 2; against the 11 pathogens tested
Text: The following Gram-negative bacteria were used in our study: A. baumannii ATCC 19606, E. coli ATCC 11775, E. coli AIC221 (E. coli MG1655 phnE_2::FRT), E. coli AIC222 (E. coli MG1655 pmrA53 phnE_2::FRT (colistin resistant)), K. pneumoniae ATCC 13883, P. aeruginosa PAO1 and P. aeruginosa PA14. The following Gram-positive bacteria were also used in our study: S. aureus ATCC 12600, S. aureus ATCC BAA-1556 (methicillin-resistant strain), E. faecalis ATCC 700802 (vancomycin-resistant strain) and E. faecium ATCC 700221 (vancomycin-resistant strain). Bacteria were grown from frozen stocks and plated on Luria–Bertani (LB) or Pseudomonas isolation agar plates (P. aeruginosa strains) and incubated overnight at 37 °C. After the incubation period, a single colony was transferred to 5 ml of LB medium, and cultures were incubated overnight (16 h) at 37 °C. The following day, an inoculum was prepared by diluting the overnight cultures 1:100 in 5 ml of the respective media and incubating them at 37 °C until bacteria reached logarithmic phase (OD600 = 0.3–0.5).
The in vitro antimicrobial activity of the peptides was assessed by using the broth microdilution assay. […] Aqueous solutions of the peptides were added to the plate at concentrations ranging from 1 to 64 μmol l^−1. […] The optical density of the plates was measured at 600 nm using a spectrophotometer. All assays were done as three biological replicates.

[4] = A. baumannii ATCC 19606, day 2, replicate 1
[5] = A. baumannii ATCC 19606, day 2, replicate 2
[6] = A. baumannii ATCC 19606, day 2, replicate 3
[7] = A. baumannii ATCC 19606, day 2, replicate 4
[8] = A. baumannii ATCC 19606, day 2, replicate 5
[9] = A. baumannii ATCC 19606, day 2, replicate 6
[10] = A. baumannii ATCC 19606, day 4, replicate 1
[11] = A. baumannii ATCC 19606, day 4, replicate 2
[12] = A. baumannii ATCC 19606, day 4, replicate 3
[13] = A. baumannii ATCC 19606, day 4, replicate 4
[14] = A. baumannii ATCC 19606, day 4, replicate 5
[15] = A. baumannii ATCC 19606, day 4, replicate 6

Question: What does the source list for polymyxin B [reference compound]?
Answer: bacterial count, skin abscess (Panel 6b) (A. baumannii ATCC 19606 [1]; [4]): 4000; bacterial count, skin abscess (Panel 6b) (A. baumannii ATCC 19606 [1]; [5]): 2000; bacterial count, skin abscess (Panel 6b) (A. baumannii ATCC 19606 [1]; [6]): 8000; bacterial count, skin abscess (Panel 6b) (A. baumannii ATCC 19606 [1]; [7]): 6000; bacterial count, skin abscess (Panel 6b) (A. baumannii ATCC 19606 [1]; [8]): 1400; bacterial count, skin abscess (Panel 6b) (A. baumannii ATCC 19606 [1]; [9]): 400; bacterial count, skin abscess (Panel 6b) (A. baumannii ATCC 19606 [1]; [10]): 8000; bacterial count, skin abscess (Panel 6b) (A. baumannii ATCC 19606 [1]; [11]): 10000; bacterial count, skin abscess (Panel 6b) (A. baumannii ATCC 19606 [1]; [12]): 600; bacterial count, skin abscess (Panel 6b) (A. baumannii ATCC 19606 [1]; [13]): 600; bacterial count, skin abscess (Panel 6b) (A. baumannii ATCC 19606 [1]; [14]): 200; bacterial count, skin abscess (Panel 6b) (A. baumannii ATCC 19606 [1]; [15]): 400; bacterial count, thigh infection (Panel 6d) (A. baumannii ATCC 19606 [2]; [4]): 20000; bacterial count, thigh infection (Panel 6d) (A. baumannii ATCC 19606 [2]; [5]): 80000; bacterial count, thigh infection (Panel 6d) (A. baumannii ATCC 19606 [2]; [6]): 200000; bacterial count, thigh infection (Panel 6d) (A. baumannii ATCC 19606 [2]; [7]): 40000; bacterial count, thigh infection (Panel 6d) (A. baumannii ATCC 19606 [2]; [8]): 40000; bacterial count, thigh infection (Panel 6d) (A. baumannii ATCC 19606 [2]; [9]): 200000; bacterial count, thigh infection (Panel 6d) (A. baumannii ATCC 19606 [2]; [10]): 200000; bacterial count, thigh infection (Panel 6d) (A. baumannii ATCC 19606 [2]; [11]): 400000; bacterial count, thigh infection (Panel 6d) (A. baumannii ATCC 19606 [2]; [12]): 1200000; bacterial count, thigh infection (Panel 6d) (A. baumannii ATCC 19606 [2]; [13]): 600000; bacterial count, thigh infection (Panel 6d) (A. baumannii ATCC 19606 [2]; [14]): 600000; bacterial count, thigh infection (Panel 6d) (A. baumannii ATCC 19606 [2]; [15]): 200000

Question: Which CC50 (HEK293T cells; 24 h) does the source give for CC[C@H](C)[C@H](NC(=O)[C@H](Cc1ccccc1)NC(=O)[C@@H](N)CC(C)C)C(=O)NCC(=O)N[C@@H](CC(C)C)C(=O)N[C@H](C(=O)N[C@@H](CC(N)=O)C(=O)N[C@@H](CC(C)C)C(=O)N[C@@H](CC(C)C)C(=O)NCC(=O)N[C@@H](CC(C)C)C(=O)N[C@@H](CC(C)C)C(=O)O)[C@@H](C)O [Mammuthusin-4] (H-LFIGLTNLLGLL-OH; N-terminus and C-terminus assumed) here?
Answer: > 128 µmol/L

Question: What about the “Active or Inactive” value [3] of the same compound?
Answer: Active

Question: How did the “Active or Inactive” value [3] turn out when CC[C@H](C)[C@H](NC(=O)[C@H](CCCCN)NC(=O)[C@H](CC(C)C)NC(=O)[C@H](Cc1c[nH]cn1)NC(=O)[C@@H](N)CC(C)C)C(=O)N[C@@H](CC(C)C)C(=O)N[C@@H](CCCCN)C(=O)N[C@H](C(=O)N[C@H](C(=O)N[C@@H](CCCNC(=N)N)C(=O)N[C@@H](CC(C)C)C(=O)N[C@@H](CC(C)C)C(=O)O)[C@@H](C)CC)[C@@H](C)CC [Elephasin-1] (H-LHLKILKIIRLL-OH; N-terminus and C-terminus assumed) was run?
Answer: Active

Question: With CC[C@H](C)[C@H](N)C(=O)N[C@@H](CC(C)C)C(=O)N[C@@H](CC(C)C)C(=O)N[C@H](C(=O)N[C@H](C(=O)N[C@@H](C)C(=O)N[C@H](C(=O)N[C@@H](C)C(=O)N[C@H](C(=O)N[C@@H](CCCCN)C(=O)N[C@@H](CC(C)C)C(=O)NCC(=O)N[C@@H](CC(C)C)C(=O)O)[C@@H](C)CC)[C@@H](C)CC)[C@@H](C)O)[C@@H](C)O [Ararin-1] (H-ILLTTAIAIKLGL-OH; N-terminus and C-terminus assumed) as the compound, how does the CC50 (HEK293T cells; 24 h) read?
Answer: > 128 µmol/L

Question: What about the “TI (therapeutic index)” value (HEK293T cells; 24 h) of the same compound?
Answer: > 4

Question: What about the “Active or Inactive” value [3] of the same compound?
Answer: Active

Question: How did the CC50 (HEK293T cells) turn out when CC[C@H](C)[C@H](NC(=O)[C@H](CCCCN)NC(=O)[C@H](CC(C)C)NC(=O)[C@H](CO)NC(=O)[C@@H](NC(=O)[C@H](CO)NC(=O)[C@H](CC(C)C)NC(=O)[C@H](CCCCN)NC(=O)[C@@H](NC(=O)[C@@H](NC(=O)[C@H](CC(N)=O)NC(=O)[C@@H](NC(=O)[C@@H](NC(=O)[C@@H](NC(=O)[C@H](Cc1c[nH]c2ccccc12)NC(=O)[C@@H](N)Cc1c[nH]cn1)[C@@H](C)CC)[C@@H](C)O)[C@@H](C)CC)[C@@H](C)O)[C@@H](C)CC)[C@@H](C)CC)C(=O)O [Lophiosin-1] (H-HWITINTIKLSISLKI-OH; N-terminus and C-terminus assumed) was run?
Answer: 68.02 µmol/L

Question: What about the “Active or Inactive” value [3] of the same compound?
Answer: Active

Question: With CC[C@H](C)[C@H](N)C(=O)N[C@H](C(=O)NCC(=O)N[C@@H](CC(N)=O)C(=O)N[C@H](C(=O)N[C@@H](Cc1ccccc1)C(=O)NCC(=O)N[C@@H](Cc1ccccc1)C(=O)N[C@@H](CCCCN)C(=O)N[C@@H](C)C(=O)N[C@@H](CC(C)C)C(=O)N[C@@H](CCCNC(=N)N)C(=O)N[C@@H](C)C(=O)N[C@@H](CC(C)C)C(=O)N[C@@H](CCCNC(=N)N)C(=O)N[C@@H](CC(C)C)C(=O)O)C(C)C)C(C)C [Hesperelin-4] (H-IVGNVFGFKALRALRL-OH; N-terminus and C-terminus assumed) as the compound, how does the “Active or Inactive” value [3] read?
Answer: Active

Question: How did the CC50 (HEK293T cells; 24 h) turn out when CC[C@H](C)[C@H](NC(=O)[C@H](Cc1c[nH]cn1)NC(=O)[C@@H](N)CC(C)C)C(=O)NCC(=O)N[C@@H](CC(C)C)C(=O)N[C@H](C(=O)N[C@@H](CCCCN)C(=O)N[C@H](C(=O)N[C@@H](Cc1ccc(O)cc1)C(=O)N[C@@H](CC(C)C)C(=O)NCC(=O)N[C@@H](CO)C(=O)N[C@@H](Cc1ccccc1)C(=O)N[C@@H](C)C(=O)N[C@@H](CC(C)C)C(=O)O)[C@@H](C)O)[C@@H](C)CC [Eudyptin-1] (H-LHIGLIKTYLGSFAL-OH; N-terminus and C-terminus assumed) was run?
Answer: > 128 µmol/L

Question: And the “TI (therapeutic index)” value (HEK293T cells; 24 h)?
Answer: > 2

Question: And the “Active or Inactive” value [3]?
Answer: Active
